Laboratory results: patent publication US9079870B2, “Thiol mediated/activated prodrugs of sulfur dioxide (SO2) having anti-bacterial activity” (priority 2012, dated 2015)
In brackets after ≈: the same amount, converted by molar mass. Like-named read-outs stand apart in the source and are kept apart here.

How the values were obtained:
[1] = Cysteine-activated sulfur dioxide release, ion chromatography analysis of sulfite; details: for % SO2 (30 min): 30 min after commencement of the reaction with thiol, per mole of compound; for SO2 yield, 5 min: 5 min after treatment of compound (100 1M) with 10 equiv of cysteine in pH 7.4 phosphate buffer; for K (min−1), rate of sulfite release: compound (100 μM), cysteine (10 equiv), pH 7.4 phosphate buffer (20 mM); for Max SO2 yield: sum of sulfite and sulfate, compound 100 μM, cysteine 10 equiv
[2] = Pararosaniline-based colorimetric assay for sulfur dioxide; type: physicochemical; details: detected with pararosaniline-based colorimetric assay; 10 equiv cysteine, pH 7.4
[3] = tested on: Mycobacterium tuberculosis H37Rv strain; assay: Antimycobacterial activity assay (MIC, 7H11 agar); type: cell-based; details: Mtb H37Rv
[4] = Table 4; values are for the amine without a DNs group; cited from earlier work
[5] = 100 µM, pH 7.4
S. aureus ATCC 29213 = assay: Antibacterial activity (MIC) against S. aureus; type: cell-based
Source text: (§1) The antibacterial activity of thiol mediated/activated prodrugs of SO2 i.e. 2,4-dinitrophenylsulfonamide related compounds against the gram positive pathogenic bacteria selected from the group S. aureus, E. feacalis is given herein below Table 2a.

E. feacalis ATCC 29212 = assay: Antibacterial activity (MIC) against E. feacalis; type: cell-based
Source text: as §1

[6] = 30 min after treatment of compound (100 1M) with 10 equiv of cysteine in pH 7.4 phosphate buffer
[7] = Table 3, 30 min after treatment of compound (100 μM) with 10 equiv of cysteine in pH 7.4 phosphate buffer
[8] = Mycobacterium tuberculosis, H37RV, 672 h, Table 3, inhibit 99% of bacterial growth
[9] = Mycobacterium tuberculosis, H37RV, Table 2b
[10] = Mycobacterium tuberculosis, H37RV, Table 2b, inhibit 99% of bacterial growth
[11] = Mycobacterium tuberculosis, H37RV, Table 3
[12] = Mycobacterium tuberculosis, H37RV, Table 3, inhibit 99% of bacterial growth

**Q.** Which results are given for `COc1ccc(N(CCCN(Cc2ccccc2)S(=O)(=O)c2ccc([N+](=O)[O-])cc2[N+](=O)[O-])S(=O)(=O)c2ccc([N+](=O)[O-])cc2[N+](=O)[O-])cc1` [Compound 37, N-benzyl-N-(3-(N-(4-methoxyphenyl)-2,4-dinitrophenylsulfonamido)propyl)-2,4-dinitrobenzenesulfonamide]?
**A.** % SO2 (30 min) [1]: 183%; melting point: 118 to 120 °C

**Q.** Which results are given for `O=[N+]([O-])c1ccc(S(=O)(=O)Nc2cccc(F)c2)c([N+](=O)[O-])c1` [Compound 9, N-(3-fluorophenyl) 2,4-dinitrophenylsulfonamide]?
**A.** SO2 source [2]: yes; MIC ([3]; Table 2b, read-out: MIC): 73 µM; MIC ([3]; Table 3, read-out: MIC): 73 µM; SO2 yield, 5 min [1]: 5 µM; SO2 yield, 30 min [1, 6]: 24 µM; SO2 yield, 30 min [1, 7]: 24 µM; K (min−1), rate of sulfite release [1]: 0.0106 min⁻¹; Max SO2 yield ([1]; pH 7.4): 86 µM; pKaH [4]: 3.38

**Q.** What does the source list for `O=[N+]([O-])c1ccc(S(=O)(=O)N(CCCN(c2ccccc2F)S(=O)(=O)c2ccc([N+](=O)[O-])cc2[N+](=O)[O-])Cc2ccccc2)c([N+](=O)[O-])c1` [Compound 39, N-benzyl-N-(3-(N-(2-fluorophenyl)-2,4-dinitrophenylsulfonamido)propyl)-2,4-dinitrobenzenesulfonamide]?
**A.** % SO2 (30 min) [1]: 141%; melting point: 151 to 153 °C

**Q.** Which SO2 source [2] does the source give for `O=[N+]([O-])c1ccc(S(=O)(=O)Nc2ccccc2)c([N+](=O)[O-])c1` [Compound 6, N-phenyl, 2,4-dinitrophenylsulfonamide] here?
**A.** yes

**Q.** And the MIC [3, 8]?
**A.** ≤ 25 µg/mL

**Q.** And the MIC [3, 9]?
**A.** 9.69 µM

**Q.** What about the MIC [3, 10] of the same molecule?
**A.** 3.13 µg/mL

**Q.** What about the MIC [3, 11] of the same molecule?
**A.** 9.7 µM

**Q.** What about the MIC [3, 12] of the same molecule?
**A.** 3.13 µg/mL

**Q.** What about the “SO2 yield, 5 min” value [1] of the same molecule?
**A.** 37 µM

**Q.** And the “SO2 yield in 30 min (%)” value ([1]; 30 min after commencement of the reaction with cysteine (10 equiv), pH 7.4)?
**A.** 55%

**Q.** And the “SO2 yield, 30 min” value [1, 6]?
**A.** 55 µM

**Q.** What about the “SO2 yield, 30 min” value [1, 7] of the same molecule?
**A.** 55 µM

**Q.** What about the “K (min−1), rate of sulfite release” value [1] of the same molecule?
**A.** 0.0273 min⁻¹

**Q.** And the “Max SO2 yield” value ([1]; pH 7.4)?
**A.** 94 µM

**Q.** And the pKaH [4]?
**A.** 4.64

**Q.** And the “t1/2 (min) of SO2 generation” value ([5]; buffer)?
**A.** 25 min

**Q.** What does the source list for `O=[N+]([O-])c1ccc(S(=O)(=O)N2CCCCC2)c([N+](=O)[O-])c1` [Compound 24, 1-[(2,4-dinitrophenyl)sulfonyl]piperidine]?
**A.** SO2 source [2]: yes; MIC (S. aureus ATCC 29213; Staphylococcus aureus, ATCC29213, read-out: MIC (μg/mL) S. aureus ATCC 29213): 4 µg/mL (≈ 12.7 µM); MIC ([3]; Mycobacterium tuberculosis, H37RV, 672 h, Table 3, inhibit 99% of bacterial growth, read-out: MIC): ≤ 25 µg/mL; MIC [3, 11]: 2.5 µM; MIC [3, 12]: 0.78 µg/mL; SO2 yield, 30 min [1, 7]: 91 µM; melting point: 138 °C; MIC (E. feacalis ATCC 29212; Enterococcus faecalis, ATCC29212, read-out: MIC (μg/mL) E. feacalis ATCC 29212): > 16 µg/mL

**Q.** With `CN(Cc1ccccc1)S(=O)(=O)c1ccc([N+](=O)[O-])cc1[N+](=O)[O-]` [Compound 15, (N-benzyl, N-methyl) 2,4-dinitrophenylsulfonamide] as the molecule, how does the SO2 source [2] read?
**A.** yes

**Q.** And the MIC (S. aureus ATCC 29213; Staphylococcus aureus, ATCC29213; read-out: MIC (μg/mL) S. aureus ATCC 29213)?
**A.** 8 µg/mL (≈ 22.8 µM)

**Q.** And the MIC [3, 8]?
**A.** ≤ 25 µg/mL

**Q.** What about the MIC [3, 9] of the same molecule?
**A.** 1.1 µM

**Q.** And the MIC [3, 10]?
**A.** 0.4 µg/mL

**Q.** What about the MIC [3, 11] of the same molecule?
**A.** 1.1 µM

**Q.** And the MIC [3, 12]?
**A.** 0.4 µg/mL

**Q.** What about the MIC ([3]; Mycobacterium tuberculosis, H37RV, text to Table 2b) of the same molecule?
**A.** < 1000 µg/mL

**Q.** What about the “SO2 yield, 5 min” value [1] of the same molecule?
**A.** 79 µM

**Q.** What about the “SO2 yield, 30 min” value [1, 6] of the same molecule?
**A.** 100 µM

**Q.** What about the “SO2 yield, 30 min” value [1, 7] of the same molecule?
**A.** 100 µM

**Q.** What about the “Max SO2 yield” value ([1]; pH 7.4) of the same molecule?
**A.** 100 µM

**Q.** And the pKaH [4]?
**A.** 9.58

**Q.** What about the MIC (E. feacalis ATCC 29212; Enterococcus faecalis, ATCC29212; read-out: MIC (μg/mL) E. feacalis ATCC 29212) of the same molecule?
**A.** > 16 µg/mL

**Q.** And the “t1/2 (min) of SO2 generation” value [5]?
**A.** 4 min

**Q.** What about the “t1/2 (min) of SO2 generation” value ([5]; buffer) of the same molecule?
**A.** ~4 g·min
